“Also recorded” adds a separate entry of the source. One block for each molecule: values may come before it.
How the values were obtained:
LLC and Raw264.7 cells = assay: In vitro inhibition study of SH1 cellular uptake; type: cell-based; conditions: 2 μM SH1, 15 min
Experimental: In vitro inhibition study: LLC and Raw264.7 cells were seeded and incubated at a density of 20,000 cells/plate in a 24-well plate. […] Cells were then incubated with 2 μM of SH1 at 37° C. for 15 min. […] After washing twice with HBSS buffer, the cells were imaged using a Nikon TE2000 epifluorescence microscope (TE2000U; Nikon) equipped with a 75-W xenon light source, NIR-compatible optics, and a NIR-compatible 4×, 10×, and 20× Plan Fluor objective lens (Nikon, Melville, NY) with a customized filter set.

[1] = test system: lung carcinoma (LLC cell line); assay: NIR-II fluorescence imaging of subcutaneous LLC tumor-bearing C57BL/6 mice; type: in vivo, mouse
Source text: General NIR-II fluorescence imaging: A 640×512-pixel InGaAs camera (Ninox640, Raptor Photonics) and macro zoom lens (0-10×; Navitar Zoom 7000 with SWIR coating) along with 900, 1070, 1100, and 1200 nm long-pass (LP) filters from either Thorlab or Edmund optics were used to collect the NIR-II signal. InGaAs camera played a role as an open-air imaging system along with the support of the FLARE system. An 808 nm fiber-coupled diode laser ([…] at the sample) was used as an excitation source. Data acquisition was done using in-house developed software. […] Mice were imaged with intact skin using InGaAs camera. At least 3 mice were analyzed for each sample. Tumor-bearing mouse models: Animals were housed in an AAALAC-certified facility and were studied under the protocols approved by the MGH IACUC (2016N000136). Mice were maintained under anesthesia with isoflurane and oxygen during the experiment. To establish the various tumor-bearing mouse models including lung carcinoma, pancreatic ductal adenocarcinoma (PDAC), and triple negative breast adenocarcinoma, eight-week-old C57BL/6 mice (Taconic Farms, Germantown, NY) were subcutaneously injected with 2×10^5 LLC, Pan02, and E0771 cells suspended in DMEM/Matrigel (100 μL, 50 v/v %) in the flank region, respectively. Female C57BL/6 mice were used for the breast cancer (E0771) model, otherwise male mice were used. […] Statistical analysis: The fluorescence and background intensities of a region of interest over each tissue were quantified using customized imaging software and ImageJ v1.48 (National Institutes of Health, Bethesda, MD). The signal-to-background ratio (SBR) was calculated as SBR=fluorescence/background, where background was the fluorescence intensity of muscle. Data were reported as mean±s.e.m. with a minimum of three biological replicates. Student's t-test statistical analysis was performed to evaluate the significance of the experimental data. The differences among groups were determined using one-way ANOVA analysis to assess the statistical differences among more than two groups. […] The data was indicated with *p<0.05, ** p<0.01, *** p<0.001, and **** p<0.0001.

[2] = Optical study in EtOH, DMSO, HEPES and PBS; type: physicochemical
Experimental: (§1) Optical Study, Photostability, Physicochemical Properties, and DFT Calculation: 1 mM stock solution in DMSO of the synthesized fluorophores was prepared before starting any spectral measurement. Optical properties for the synthesized fluorophores were measured in four different solvents (EtOH, DMSO, HEPES, and PBS). Absorbance spectra were measured in a Varian Cary 50 absorbance spectrophotometer (190-1100 nm). Fluorescence emission and photostability were measured and emission spectra were recorded on a Shimadzu RF-5301PC spectrofluorometer. Physicochemical properties (Log D, molecular mass, TPSA, H bond D/A, polarizability, molecular volume, and rotatable bonds) were predicted by ChemAxon (JChem plugin). Theoretical calculations of frontier molecular orbitals (FMOs) for the optimized structures of selected fluorophores were calculated based on DFT calculations at the B3LYP/6-311G(d,p) level.
In vivo success of a contrast agent can depend on the absorption and emission profiles, molar extinction coefficient, quantum yield, molecular brightness, physicochemical properties, and photochemical stability. Different types of polymethine bridges can have an impact on the structural geometry of the fluorophores and the absorption and emission profiles. Optical properties were measured in polar protic EtOH, polar aprotic DMSO, and two buffer solutions, phosphate-buffered saline (PBS, PH ˜7.4) and 4-(2-hydroxyethyl)-1-piperazine-ethanesulfonic acid (HEPES, PH ˜7.4). Organic solvents such as ethanol (EtOH) and dimethyl sulfoxide (DMSO) are often used in spectroscopic experiments to observe the absorption and emission maximum, whereas buffer solvents PBS and HEPES were used to mimic the biological environment, as these synthesized fluorophores are intended to be used in bioimaging. The absorbance profiles of these fluorophores were recorded at various concentrations (0.8, 1.6, 2.4, 3.2, 4.0 μM) and the absorbance values obtained were plotted against each of the concentrations. […] Fluorophores 18-21 refer to the labels in Example 4 and FIG. 7D.
The molar extinction coefficient is an intrinsic property of any fluorophore and can be important for high image resolution. […] These properties vary with the structure change and are difficult to predict beforehand. The optical properties of the synthesized fluorophores were measured in various media. All measurements were performed in 2 different organic solvents (EtOH and DMSO) and 2 different buffer (HEPES and PBS), and ICG was used as a reference (ΦICG=0.043).

[3] = In vivo biodistribution study of NIR fluorophores in CD-1 mice; set-up: species or system mouse; conditions: 25 nmol intravenous, 4 h post-injection
Experimental: In Vivo Biodistribution Study of NIR Fluorophores: Under the supervision of the MGH IACUC, animals were housed in an AAALAC-certified facility and studied according to institutional protocol #2016N000136. In preparation for injection, CD-1 mice (25-30 g, 6 weeks, Charles River Laboratories, Wilmington, MA) were anesthetized with isoflurane and oxygen. A 10 mM stock solution of NIR fluorophores was prepared in DMSO, and 25 nmol of each molecule was diluted in BSA-containing saline (5 wt/v %) for intraoperative imaging. After 4 h post-injection, mice were imaged. For each experiment, camera exposure time and image normalization were held constant.
Quantitative Analysis: The fluorescence and background intensity of a region of interest (ROI) over each tissue was quantified using ImageJ software (NIH, Bethesda, MD) version 1.45q. The signal-to-background ratio (SBR) was calculated as SBR=fluorescence/background, where background is the signal intensity of neighboring tissues such as muscle. All NIR fluorescence images for a particular fluorophore were normalized identically for all conditions of an experiment.

[4] = Photostability under xenon lamp irradiation; type: physicochemical; conditions: 2 h
Experimental: as §1
In consideration of theranostic (therapeutics and diagnostic) applications, NIR cyanine fluorophores are synthesized for fluorescence imaging, photodynamic therapy (PDT), photothermal therapy (PTT), optoacoustic imaging, and cancer immunotherapy. One of the approaches before using these fluorophores in those applications is to study their biodistribution and clearance pattern in vivo. […] The power density of 150 W is much higher than the required power for fluorescence imaging, considering that the time it takes for a fluorophore to clear from the background and accumulate in sufficient quantities in the targeted tissues is unknown. […] By considering this, an aliquot of the stock solution (1 mM in DMSO) was diluted in ethanol, and the fluorescence intensity was measured at the excitation wavelength same as their absorption maxima (nm). Photodegradation rates were measured every 20 min intervals for the selected fluorophores based on the % reduced fluorescence intensity starting from 100%. […] The data were collected in every 20 min intervals under continuous irradiation with a xenon lamp at 150 W for 2 h and presented based on the % reduced fluorescence intensity starting from 100%. […]

SMILES: O=C1OC(c2ccc(O)c(S(=O)(=O)O)c2)(c2ccc(O)c(S(=O)(=O)O)c2)c2c(Br)c(Br)c(Br)c(Br)c21 [bromosulphophthalein, bromsulphthalein]
effect of inhibitor pretreatment on SH1 cellular uptake (LLC and Raw264.7 cells): Neither bromosulphophthalein, cyclosporin A (both OATP inhibitors), D22 (OCT inhibitor), nor MK-571 (ABC transporter inhibitor) significantly inhibited SH1 uptake

SMILES: CCCCN1/C(=C/C=C/C=C/C=C/C2=[N+](CCCC)c3ccc(Cl)cc3C2(C)C)C(C)(C)c2cc(Cl)ccc21 [SH2, 1-butyl-2-((1E,3E,5E)-7-((E)-1-butyl-5-chloro-3,3-dimethylindolin-2-ylidene)hepta-1,3,5-trien-1-yl)-5-chloro-3,3-dimethyl-3H-indol-1-ium iodide]
NIR-II signal intensity of abdominal and dissected tumor image ([1]; NIR-II region): low signal intensity in NIR-II region

SMILES: CCCCN1/C(=C/C=C2\CCCC(/C=C/C3=[N+](CCCC)c4ccc(Br)cc4C3(C)C)=C2Cl)C(C)(C)c2cc(Br)ccc21.[I-] [fluorophore 20, 5-Bromo-2-((E)-2-((E)-3-(2-((E)-5-bromo-1-butyl-3,3-dimethylindolin-2-ylidene)ethylidene)-2-chlorocyclohex-1-en-1-yl)vinyl)-1-butyl-3,3-dimethyl-3H-indol-1-ium Iodide]
quantum yield ([2]; PBS): 0.01
tissue/organ signals [3]: high signals in the primary and secondary lymphoid tissues

emission wavelength ([2]; DMSO): 817 nm
photodegradation (% reduced fluorescence intensity) [4]: 7-12%
SMILES: CC1(C)C(/C=C/C2=C(Cl)C(=C/C=C3/N(CCCc4ccccc4)c4ccc(Cl)cc4C3(C)C)/CCC2)=[N+](CCCc2ccccc2)c2ccc(Cl)cc21.[Br-] [fluorophore 19, 5-Chloro-2-((E)-2-((E)-2-chloro-3-(2-((E)-5-chloro-3,3-dimethyl-1-(3-phenylpropyl)indolin-2-ylidene)ethylidene)cyclohex-1-en-1-yl)vinyl)-3,3-dimethyl-1-(3-phenylpropyl)-3H-indol-1-ium Bromide]

SMILES: O=C1NC(=NS(=O)(=O)c2cccc3ccccc23)S/C1=C\c1ccc(Br)cc1 [Pitstop 2]
effect of inhibitor pretreatment on SH1 cellular uptake (LLC and Raw264.7 cells): did not result in any appreciable change in cellular uptake

SMILES: CCN1/C(=C/c2ccc3ccccc3[n+]2CC)C=Cc2ccccc21.[I-] [D22, 1,1′-Diethyl-2,2′-cyanine iodide]
effect of inhibitor pretreatment on SH1 cellular uptake (LLC and Raw264.7 cells): Neither bromosulphophthalein, cyclosporin A (both OATP inhibitors), D22 (OCT inhibitor), nor MK-571 (ABC transporter inhibitor) significantly inhibited SH1 uptake

SMILES: O=C(N/N=C/c1cc(O)c(O)cc1O)c1cc2ccccc2cc1O [dingo 4a]
effect of inhibitor pretreatment on SH1 cellular uptake (LLC and Raw264.7 cells): significantly inhibited the internalization

SMILES: CN(C)C(=O)CCSC(SCCC(=O)O)c1cccc(/C=C/c2ccc3ccc(Cl)cc3n2)c1 (stereo not drawn) [MK-571]
effect of inhibitor pretreatment on SH1 cellular uptake (LLC and Raw264.7 cells): Neither bromosulphophthalein, cyclosporin A (both OATP inhibitors), D22 (OCT inhibitor), nor MK-571 (ABC transporter inhibitor) significantly inhibited SH1 uptake

quantum yield ([2]; EtOH): 0.33
quantum yield ([2]; PBS): 0.01
molecular brightness ([2]; highest observed): 79,664 cm^−1 M^−1
SMILES: CCCCN1/C(=C/C=C2\CCCC(/C=C/C3=[N+](CCCC)c4ccccc4C3(C)C)=C2Cl)C(C)(C)c2ccccc21 [SH21, 1-butyl-2-((E)-2-((E)-3-(2-((E)-1-butyl-3,3-dimethylindolin-2-ylidene)ethylidene)-2-chlorocyclohex-1-en-1-yl)vinyl)-3,3-dimethyl-3H-indol-1-ium iodide]
tissue/organ signals [3]: high background signals; also recorded: higher background tissue uptake
circulation in the blood stream ([1]; 48 h post-injection): circulating in the blood stream at 48 h post injection
